Patent US9889088B2, “Alpha-2 adrenergic agonist having long duration of intraocular pressure-lowering effect” (priority 2010, dated 2018)
Each block holds one compound with its values, some of them ahead of it.

What was measured:
[1] = Iris-ciliary body accumulation and melanin binding (pharmacokinetic data); details: unpublished pharmacokinetic data
[2] = rats, after oral dose of brimonidine tartrate; Acheampong et al. 2007; cited from earlier work
[3] = Pharmacokinetic analysis of ocular tissues and plasma after topical dosing in rabbits; assay type: in vivo, rabbit
Method: Twenty-three Dutch Belted female rabbits (group 1) weighing approximately 1.75-2.34 kg were dosed with 35 μL of the formulation to the left eye. At different time points, prior to euthanasia, approximately 0.5 mL of blood was collected via central ear artery and placed in EDTA tubes. Blood samples were kept on ice during the duration of sample collection and centrifuged to harvest plasma. Animals were euthanized with 1 mL of Euthasol intravenously and the ocular tissues (aqueous humor, cornea, conjunctiva, iris-ciliary body, retina, and sclera) were collected from left and right eyes. All ocular tissues samples were placed in vials and kept on dry ice during the duration of sample collection. Ocular tissues were also collected from the control group (group 2) which received no dose. These ocular tissues served as analytical control. All ocular tissue and plasma samples were stored at or below −60° C. until bioanalysis.
(Acheampong et al. (Drug Metabolism and Disposition, Vol 23, No. 7, p 708-712).

[4] = tested on: intraocular pressure of normotensive Dutch-Belted male rabbits; experiment: Intraocular pressure lowering after a single topical eye drop in normotensive rabbits; assay type: in vivo, rabbit; details: for time for which the decrease in intraocular pressure is maintained: single 50 μl drop, treated eye; for sedation, ocular irritation, and changes in pupil diameter: single topical drop, observed throughout the experiment
Method: The free base of 4-bromo-N-imidazolidin-2-ylidene-1-H-benzimidazol-5-amine was dissolved in sterile distilled water, hydrochloric acid was added and the hydrochloric salt of the compound was formed in situ. The solution was titrated with sodium hydroxide until the pH of the solution reached 8.0. […] The experimental animals used were normotensive Dutch-Belted male rabbits. A single drop (50 μl) of the drug formulation was administered topically by pipette onto the right eye (treated eye) at approximately 07:00 AM hours. The intraocular pressure of the rabbits (treated and untreated eyes) was measured 0 hours before and at 0.5, 1, 2, 3, 4, 6 and 8 hours after topical eye drop single administration. The intraocular pressure taken before the eye drop administration (0 hours) was used as a baseline value. Prior to the tonometric measurements, 0.05% proparacaine (50 μl) was administered to each eye. Tonometric intraocular pressure measurements were obtained with a Mentor Pneumotonometer. Additionally, all studies were masked. All animals were examined for sedation, ocular irritation, and changes in pupil diameter throughout the course of the experiments.
The free base of 4-bromo-N-imidazolidin-2-ylidene-1-H-benzimidazol-5-amine was dissolved in sterile distilled water, hydrochloric acid was added and the hydrochloric salt of the compound was formed in situ. The solution was titrated with sodium hydroxide until the pH of the solution reached 8.0. The final concentration of 4-bromo-N-imidazolidin-2-ylidene-1-H-benzimidazol-5-amine is 0.2% by weight. The experimental animals used were normotensive Dutch-Belted male rabbits. A single drop (50 μl) of the drug formulation was administered topically by pipette onto the right eye (treated eye) at approximately 07:00 AM hours. The intraocular pressure of the rabbits (treated and untreated eyes) was measured 0 hours before and at 2, 4 and 6 hours after topical eye drop single administration. The intraocular pressure taken before the eye drop administration (0 hours) was used as a baseline value. Prior to the tonometric measurements, 0.05% proparacaine (50 μl) was administered to each eye. Tonometric intraocular pressure measurements were obtained with a Mentor Pneumotonmeter. Additionally, all studies were masked. All animals were examined for sedation, ocular irritation, and changes in pupil diameter throughout the course of the experiments.

corneal epithelial cells = experiment: Corneal penetration assay
[5] = Corneal penetration assay
[6] = tested on: intraocular pressure of hypertensive monkeys; experiment: Intraocular pressure lowering in hypertensive monkeys; assay type: in vivo, monkey; details: composition of Example 1 (FIG. 4 legend: 0.5% solution), compared to placebo
[7] = cited from earlier work; for clearance from the aqueous humor / passage through cornea and sclera: following topical dosing
[8] = stated as found earlier; cited from earlier work

Structure (SMILES): Brc1c(N=C2NCCN2)ccc2[nH]cnc12 [4-bromo-N-imidazolidin-2-ylidene-1-H-benzimidazol-5-amine]
- accumulation at the iris-ciliary body [1]: very little accumulation
- melanin binding [1]: no sign of melanin binding
- amount found in urine [2]: trace amounts
- time for which sustained levels remain in the aqueous humor ([3]; 35 μL topical to left eye, Dutch Belted female rabbits, FIG. 3A): over 8 hours
- time for which the level is maintained in several ocular tissues ([3]; 35 μL topical to left eye, FIG. 3B): over 8 hrs
- plasma level ([3]; after topical ocular dosing): low and below detectable level
- time for which the decrease in intraocular pressure is maintained ([4]; 0.2% by weight solution, topical, FIG. 2): > 6 h
- sedation, ocular irritation, and changes in pupil diameter ([4]; 0.2% by weight solution): None of these effects were observed
- time for which the decrease in intraocular pressure is maintained ([4]; 1% by weight solution, topical, FIG. 1): > 8 h
- sedation, ocular irritation, and changes in pupil diameter ([4]; 1% by weight solution): None of these effects were observed
- penetration of corneal epithelial cells (in words) (corneal epithelial cells): poorly
- Papp [5]: 1.19 ± 0.1 nm/s
- time for which the decrease in intraocular pressure is maintained [6]: up to 24 hours

- time in which levels in the aqueous humor are substantially decreased ([3]; 0.15% brimonidine, similar study done previously, FIG. 3A): 3 h
- penetration of corneal epithelial cells (in words) (corneal epithelial cells): moderate penetrator
- Papp [5]: 85.7 ± 6.4 nm/s
Structure (SMILES): Brc1c(NC2=NCCN2)ccc2nccnc12 [Brimonidine, (5-bromo-quinoxalin-6-yl)-imidazolidin-2-ylidene-amine]
- time in which intraocular pressure returns to baseline ([4]; brimonidine containing composition (0.15% solution per FIG. 1 legend), topical): < 6 h
- clearance from the aqueous humor [7]: rapidly cleared
- passage through cornea and sclera [7]: readily pass through the cornea and sclera
- time in which the level decreases in aqueous humor ([7]; regardless of the dose, Acheampong et al.): three
- accumulation in the iris-ciliary body [8]: accumulate in the iris-ciliary body
- binding to the pigment melanin [8]: high binding

Structure (SMILES): OC[C@@H](O)[C@@H](O)[C@H](O)[C@H](O)CO [Compound 3H-mannitol, 3H-mannitol]
- Papp (×10^−6 cm/s) (corneal epithelial cells; permeability coefficient, corneal epithelial cells): 0.512 ± 0.069 ×10^−6 cm/s

Structure (SMILES): Nc1cc(Cl)c(N=C2NCCN2)c(Cl)c1 [apraclonidine, 2,6-dichloro-N-imidazolidin-2-ylidene-benzene-1,4-diamine]
- clearance from the aqueous humor [7]: rapidly cleared
- passage through cornea and sclera [7]: readily pass through the cornea and sclera
- accumulation in the iris-ciliary body [8]: accumulate in the iris-ciliary body
- binding to the pigment melanin [8]: high binding
